ChEMBL document CHEMBL1140220, “Synthetic and crystallographic studies of a new inhibitor series targeting Bacillus anthracis dihydrofolate reductase” (J Med Chem, 2008)

Target: T1, Dihydrofolate reductase (Homo sapiens, UniProt P00374)
T1 sequence (P00374 whole entry): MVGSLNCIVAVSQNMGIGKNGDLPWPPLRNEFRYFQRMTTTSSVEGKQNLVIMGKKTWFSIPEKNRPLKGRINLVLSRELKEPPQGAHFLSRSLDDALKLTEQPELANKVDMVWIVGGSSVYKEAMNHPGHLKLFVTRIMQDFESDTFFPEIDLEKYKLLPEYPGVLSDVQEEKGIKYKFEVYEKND

Compound | IC50
CCc1nc(N)nc(N)c1C#CCc1ccccc1 | 360 nM
CCc1nc(N)nc(N)c1C#CCc1cccc(OC)c1OC | 130 nM
